Measurements reported in patent US6906097B2, “8-azaprostaglandin analogs as agents for lowering intraocular pressure” (Allergan, Inc., priority 2002, dated 2005).

Tests used:
hEP3A = target: T1, hEP3A (Homo sapiens, UniProt P43115); experiment: Functional data, human recombinant EP3A receptor stable transfectants; assay type: cell-based
T1 construct: expressed in transfected cells
T1 sequence (P43115 1-390): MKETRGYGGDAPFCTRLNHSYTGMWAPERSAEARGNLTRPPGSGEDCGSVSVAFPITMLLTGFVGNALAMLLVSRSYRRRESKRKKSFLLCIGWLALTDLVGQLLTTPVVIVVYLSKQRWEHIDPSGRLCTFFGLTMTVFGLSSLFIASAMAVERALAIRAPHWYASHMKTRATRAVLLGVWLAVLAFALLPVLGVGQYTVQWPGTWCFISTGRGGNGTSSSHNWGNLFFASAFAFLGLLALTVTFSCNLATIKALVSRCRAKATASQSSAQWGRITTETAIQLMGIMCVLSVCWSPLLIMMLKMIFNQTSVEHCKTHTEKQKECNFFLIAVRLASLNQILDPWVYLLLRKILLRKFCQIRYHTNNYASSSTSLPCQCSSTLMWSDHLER
Experimental: (§1) Human Recombinant EP1, EP2, EP3, EP4, FP, TP, IP and DP Receptors: Stable Transfectants
(§2) Plasmids encoding the human EP1, EP2, EP3, EP4, FP, TP, IP and DP receptors were prepared by cloning the respective coding sequences into the eukaryotic expression vector pCEP4 (Invitrogen). The pCEP4 vector contains an Epstein Barr virus (EBV) origin of replication, which permits episomal replication in primate cell lines expressing EBV nuclear antigen (EBNA-1). It also contains a hygromycin resistance gene that is used for eukaryotic selection. […] HEK-293 cells were grown in DMEM with 10% fetal bovine serum (FBS), 250 μg ml^−1 G418 (Life Technologies) and 200 μg ml^−1 gentamicin or penicillin/streptomycin.
(§3) For transfection, the cells were grown to 50-60% confluency on 10 cm plates. The plasmid pCEP4 incorporating cDNA inserts for the respective human prostanoid receptor (20 μg) was added to 500 μl of 250 mM CaCl2. […] After 30 min, 9 ml DMEM were added to the mixture. The DNA/DMEM/calcium phosphate mixture was then added to the cells, which had been previously rinsed with 10 ml PBS. The cells were then incubated for 5 hr at 37° C. in humidified 95% air/5% CO2. The calcium phosphate solution was then removed and the cells were treated with 10% glycerol in DMEM for 2 min. The glycerol solution was then replaced by DMEM with 10% FBS. The cells were incubated overnight and the medium was replaced by DMEM/10% FBS containing 250 μg ml^−1 G418 and penicillin/streptomycin. The following day hygromycin B was added to a final concentration of 200 μg ml^−1.
(§4) Ten days after transfection, hygromycin B resistant clones were individually selected and transferred to a separate well on a 24 well plate. At confluence each clone was transferred to one well of a 6 well plate, and then expanded in a 10 cm dish. Cells were maintained under continuous hygromycin selection until use.

hEP4 [1] = target: T2, hEP4 (Homo sapiens, UniProt P35408); experiment: Functional data, human recombinant EP4 receptor stable transfectants; assay type: cell-based
T2 construct: expressed in transfected cells
T2 sequence (P35408 whole entry): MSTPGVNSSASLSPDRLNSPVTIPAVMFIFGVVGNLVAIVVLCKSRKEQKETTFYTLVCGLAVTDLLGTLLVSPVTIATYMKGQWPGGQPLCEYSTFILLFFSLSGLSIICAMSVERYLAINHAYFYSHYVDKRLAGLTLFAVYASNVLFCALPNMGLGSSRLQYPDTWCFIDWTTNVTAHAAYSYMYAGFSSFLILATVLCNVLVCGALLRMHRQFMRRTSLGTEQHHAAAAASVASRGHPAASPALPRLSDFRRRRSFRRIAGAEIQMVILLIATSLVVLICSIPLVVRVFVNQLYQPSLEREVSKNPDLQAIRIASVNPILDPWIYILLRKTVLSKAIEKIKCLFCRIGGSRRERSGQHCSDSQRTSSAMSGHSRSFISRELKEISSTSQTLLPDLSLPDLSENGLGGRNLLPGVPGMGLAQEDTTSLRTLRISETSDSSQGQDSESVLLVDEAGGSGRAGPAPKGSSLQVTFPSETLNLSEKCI
Experimental: as §1, §2, §3, §4

hEP3D = target: T3, hEP3D (Homo sapiens, UniProt P43115); experiment: Radioligand binding, hEP3D; settings: [3H]PGE2 competition
T3 construct: expressed in transfected cells; host or cells: COS-7, transient transfection, plasma membrane fraction
T3 sequence (P43115 1-374 isoform P43115-4): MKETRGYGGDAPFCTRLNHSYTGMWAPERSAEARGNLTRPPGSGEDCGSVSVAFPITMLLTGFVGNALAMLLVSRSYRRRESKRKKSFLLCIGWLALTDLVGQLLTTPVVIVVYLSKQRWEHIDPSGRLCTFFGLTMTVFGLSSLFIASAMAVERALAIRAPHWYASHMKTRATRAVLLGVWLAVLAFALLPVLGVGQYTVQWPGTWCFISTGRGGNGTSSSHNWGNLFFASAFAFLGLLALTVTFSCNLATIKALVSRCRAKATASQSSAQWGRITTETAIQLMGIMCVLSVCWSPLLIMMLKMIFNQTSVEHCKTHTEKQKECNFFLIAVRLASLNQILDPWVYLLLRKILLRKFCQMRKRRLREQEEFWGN
Experimental: For radioligand binding on the transient transfectants, plasma membrane fraction preparation was as follows. COS-7 cells were washed with TME buffer, scraped from the bottom of the flasks, and homogenized for 30 sec using a Brinkman PT 10/35 polytron. TME buffer was added to achieve a final 40 ml volume in the centrifuge tubes. The composition of TME is […]; 10N HCl is added to achieve a pH of 7.4.
The cell homogenate was centrifuged at 19000 rpm for 20 min at 4° C. using a Beckman Ti-60 rotor. The resultant pellet was resuspended in TME buffer to give a final 1 mg/ml protein concentration, as determined by Biorad assay. Radioligand binding assays were performed in a 200 μl volume.
The binding of [^3H] PGE2 (specific activity 165 […]) at EP3D, receptors and [^3H]-SQ29548 (specific activity 41.5 Ci mmol^−1) at TP receptors were determined in duplicate in at least three separate experiments. Radiolabeled PGE2 was purchased from Amersham, radiolabeled SQ29548 was purchased from New England Nuclear. […] Competition studies were performed using a final concentration of 2.5 or 5 nM [^3H]-PGE2, or 10 nM [^3H]-SQ 29548 and non-specific binding determined with 10 μM of the respective unlabeled prostanoid. […]

hTP = target: T4, hTP (Homo sapiens, UniProt P21731); experiment: Functional data, human recombinant TP receptor stable transfectants; assay type: cell-based
T4 construct: expressed in transfected cells
T4 sequence (P21731 1-343): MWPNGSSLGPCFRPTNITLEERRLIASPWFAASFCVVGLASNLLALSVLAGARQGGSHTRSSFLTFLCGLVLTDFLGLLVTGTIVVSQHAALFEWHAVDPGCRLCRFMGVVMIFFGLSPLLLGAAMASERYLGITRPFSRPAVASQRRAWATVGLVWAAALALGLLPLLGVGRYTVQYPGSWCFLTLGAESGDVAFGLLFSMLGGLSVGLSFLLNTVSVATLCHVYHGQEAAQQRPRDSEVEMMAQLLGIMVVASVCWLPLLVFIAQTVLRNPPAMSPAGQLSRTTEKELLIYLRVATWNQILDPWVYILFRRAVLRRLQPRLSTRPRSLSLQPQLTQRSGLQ
Experimental: as §1
(§5) Plasmids encoding the human EP1, EP2, EP3, EP4, FP, TP, IP and DP receptors were prepared by cloning the respective coding sequences into the eukaryotic expression vector pCEP4 (Invitrogen). The pCEP4 vector contains an Epstein Barr virus (EBV) origin of replication, which permits episomal replication in primate cell lines expressing EBV nuclear antigen (EBNA-1). It also contains a hygromycin resistance gene that is used for eukaryotic selection. The cells employed for stable transfection were human embryonic kidney cells (HEK-293) that were transfected with and express the EBNA-1 protein. These HEK-293-EBNA cells (Invitrogen) were grown in medium containing Geneticin (G418) to maintain expression of the EBNA-1 protein. HEK-293 cells were grown in DMEM with 10% fetal bovine serum (FBS), 250 μg ml^−1 G418 (Life Technologies) and 200 μg ml^−1 gentamicin or penicillin/streptomycin.
(§6) For transfection, the cells were grown to 50-60% confluency on 10 cm plates. The plasmid pCEP4 incorporating cDNA inserts for the respective human prostanoid receptor (20 μg) was added to 500 μl of 250 mM CaCl2. HEPES buffered saline×2 (2×HBS, 280 mM NaCl, 20 mM HEPES acid, 1.5 mM Na2 HPO4, pH 7.05-7.12) was then added dropwise to a total of 500 μl, with continuous vortexing at room temperature. After 30 min, 9 ml DMEM were added to the mixture. The DNA/DMEM/calcium phosphate mixture was then added to the cells, which had been previously rinsed with 10 ml PBS. The cells were then incubated for 5 hr at 37° C. in humidified 95% air/5% CO2. The calcium phosphate solution was then removed and the cells were treated with 10% glycerol in DMEM for 2 min. The glycerol solution was then replaced by DMEM with 10% FBS. The cells were incubated overnight and the medium was replaced by DMEM/10% FBS containing 250 μg ml^−1 G418 and penicillin/streptomycin. The following day hygromycin B was added to a final concentration of 200 μg ml^−1.
as §4

hEP2 = target: T5, hEP2 (Homo sapiens, UniProt P43116); experiment: Radioligand binding, hEP2; settings: [3H]PGE2 competition
T5 construct: expressed in transfected cells
T5 sequence (P43116 whole entry): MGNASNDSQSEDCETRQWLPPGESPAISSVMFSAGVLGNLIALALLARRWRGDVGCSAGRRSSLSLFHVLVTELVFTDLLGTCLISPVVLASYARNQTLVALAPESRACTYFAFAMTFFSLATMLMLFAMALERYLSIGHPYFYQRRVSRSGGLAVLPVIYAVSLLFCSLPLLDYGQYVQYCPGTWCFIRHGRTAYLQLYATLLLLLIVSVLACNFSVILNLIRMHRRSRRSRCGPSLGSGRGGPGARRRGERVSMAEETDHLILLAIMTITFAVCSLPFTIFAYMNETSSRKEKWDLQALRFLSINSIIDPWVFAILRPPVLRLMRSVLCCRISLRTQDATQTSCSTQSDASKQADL
Experimental: as §1
as §5, with “HEK-293 cells were grown in DMEM with 10% fetal bovine serum (FBS), 250 μg ml^−1 G418 (Life Technologies) and 200 μg ml^−1 gentamicin or penicillin/streptomycin.” left out
Radioligand binding studies on plasma membrane fractions prepared for cells stably transfected with the cat or human receptor were performed as follows. […] The pellet was then resuspended in TME buffer to provide a final protein concentration of 1 mg/ml, as determined by Bio-Rad assay. […]
The binding of [^3H](N) PGE2 (specific activity 165 Ci/mmol) was determined in duplicate and in at least 3 separate experiments. […] Competition studies were performed using a final concentration of 2.5 or 5 nM [^3H](N) PGE2 and non-specific binding was determined with 10^−5 M unlabelled PGE2.

hEP4 [2] = target: T2, hEP4; experiment: Radioligand binding, hEP4; settings: [3H]PGE2 competition
Experimental: as §1, §2, §3, §4
Radioligand binding studies on plasma membrane fractions prepared for cells stably transfected with the cat or human receptor were performed as follows. Cells washed with TME buffer were scraped from the bottom of the flasks and homogenized for 30 sec using a Brinkman PT 10/35 polytron. TME buffer was added as necessary to achieve a 40 ml volume in the centrifuge tubes. TME is comprised of 50 mM TRIS base, 10 mM MgCl2, 1 mM EDTA; pH 7.4 is achieved by adding 1 N HCl. The cell homogenate was centrifuged at 19,000 rpm for 20-25 min at 4° C. using a Beckman Ti-60 or Ti-70 rotor. The pellet was then resuspended in TME buffer to provide a final protein concentration of 1 mg/ml, as determined by Bio-Rad assay. Radioligand binding assays were performed in a 100 μl or 200 μl volume.
The binding of [^3H](N) PGE2 (specific activity 165 Ci/mmol) was determined in duplicate and in at least 3 separate experiments. Incubations were for 60 min at 25° C. and were terminated by the addition of 4 ml of ice-cold 50 mM TRIS-HCl followed by rapid filtration through Whatman GF/B filters and three additional 4 ml washes in a cell harvester (Brandel). Competition studies were performed using a final concentration of 2.5 or 5 nM [^3H](N) PGE2 and non-specific binding was determined with 10^−5 M unlabelled PGE2.

hEP1 = target: T6, hEP1 (Homo sapiens, UniProt P34995); experiment: Functional data, human recombinant EP1 receptor stable transfectants; assay type: cell-based
T6 construct: expressed in transfected cells
T6 sequence (P34995 1-402): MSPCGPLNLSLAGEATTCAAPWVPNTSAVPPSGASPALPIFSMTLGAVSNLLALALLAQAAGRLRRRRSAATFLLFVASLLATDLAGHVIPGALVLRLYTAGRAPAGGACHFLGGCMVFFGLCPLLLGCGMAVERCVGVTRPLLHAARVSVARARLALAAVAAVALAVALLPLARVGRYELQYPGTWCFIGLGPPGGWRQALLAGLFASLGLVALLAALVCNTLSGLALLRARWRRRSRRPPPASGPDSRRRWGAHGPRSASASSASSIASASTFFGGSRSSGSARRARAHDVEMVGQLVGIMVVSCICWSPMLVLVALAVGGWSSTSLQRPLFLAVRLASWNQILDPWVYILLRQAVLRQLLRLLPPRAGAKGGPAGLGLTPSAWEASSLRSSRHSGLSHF
Experimental: as §1, §5, §6, §4

hIP = target: T7, hIP (Homo sapiens, UniProt P43119); experiment: Functional data, human recombinant IP receptor stable transfectants; assay type: cell-based
T7 construct: expressed in transfected cells
T7 sequence (P43119 whole entry): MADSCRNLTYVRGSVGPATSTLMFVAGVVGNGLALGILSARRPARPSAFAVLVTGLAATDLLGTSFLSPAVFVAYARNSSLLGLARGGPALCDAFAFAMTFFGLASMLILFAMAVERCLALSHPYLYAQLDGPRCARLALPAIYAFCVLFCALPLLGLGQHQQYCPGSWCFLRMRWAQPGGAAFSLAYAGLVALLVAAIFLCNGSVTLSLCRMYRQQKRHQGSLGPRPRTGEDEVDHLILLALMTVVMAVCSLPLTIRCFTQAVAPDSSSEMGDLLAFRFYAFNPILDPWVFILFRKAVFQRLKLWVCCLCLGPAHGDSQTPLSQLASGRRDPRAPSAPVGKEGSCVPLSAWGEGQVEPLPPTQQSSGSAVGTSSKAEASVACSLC
Experimental: as §1, §5
For transfection, the cells were grown to 50-60% confluency on 10 cm plates. The plasmid pCEP4 incorporating cDNA inserts for the respective human prostanoid receptor (20 μg) was added to 500 μl of 250 mM CaCl2. HEPES buffered saline×2 (2×HBS, 280 mM NaCl, 20 mM HEPES acid, 1.5 mM Na2 HPO4, pH 7.05-7.12) was then added dropwise to a total of 500 μl, with continuous vortexing at room temperature. […]

SMILES	hEP3A functional EC50 (hEP3A)	EC50 (hEP4 [1]) [nM]	IC50 (hEP3D) [nM]	EC50 (hTP) [nM]	EC50 (hEP3A) [nM]	IC50 (hEP2) [nM]	IC50 (hEP4 [2]) [nM]	hEP1 functional EC50 (hEP1)	EC50 (hIP) [nM]	EC50 (hEP1) [nM]
O=C(O)CCCCCCN1C(=O)CC[C@@H]1/C=C/C(=O)Cc1ccccc1 [Example 11a, 7-[2S-[3-Oxo-4-(phenyl)-but-1-enyl]-5-oxo-pyrrolidin-1-yl]-heptanoic acid]	hit	29	300	> 10000						
O=C(O)CCCCCCN1C(=O)CC[C@@H]1/C=C/C(O)Cc1cccc(Cl)c1 (stereo partly drawn) [Example 1a, 7-[2S-[3R-Hydroxy-4-(chloro-phenyl)-but-1-enyl]-5-oxo-pyrrolidin-1-yl]-heptanoic acid]		0.02		> 10000	324	> 10000	0.4	hit		
CCOC(=O)CCCCCCN1C(=O)CC[C@@H]1/C=C/C(O)Cc1cccc(C(F)(F)F)c1 (stereo partly drawn) [Example 6a, 7-[2S-[3R-Hydroxy-4-(3-trifluoromethyl-phenyl)-but-1-enyl]-5-oxo-pyrrolidin-1-yl]-heptanoic acid, ethyl ester]		26			> 10000		200		> 10000	
O=C(O)CCCCCCN1C(=O)CC[C@@H]1/C=C/C(=O)Cc1cccc(C(F)(F)F)c1 [Example 7a, 7-[2S-[3-Oxo-4-(trifluormethylphenyl)-but-1-enyl]-5-oxo-pyrrolidin-1-yl]-heptanoic acid]	hit	86				> 10000	500			> 10000
